Results published in patent publication US20240156931A1, “COLLECTION AND USES OF TISSUE RESIDENT INTERSTITIAL EXTRACELLULAR VESICLES” (priority 2022, published 2024).
“Also recorded” adds a separate entry of the source.

How the values were obtained:
[1] = system: Ovarian Cancer tumor cells; assay: EVs released by ovarian cancer cells undergoing cisplatin treatment (Western blot, RPPA); type: cell-based
Method: A) Ovarian Cancer tumor cells are treated with pulses of cisplatin, a common ovarian cancer therapeutic. EVs released by the cancer cells undergoing cisplatin treatment are isolated by differential ultracentrifugation and analyzed via Western Blot, mass spectrometry, and reverse phase protein array in order to determine potential pathways and markers that are indicative of cancer resistance. […] Additionally, the subpopulations are present with typical EV related tetraspanin markers.
In an embodiment, RPPA assays previously used for tissue lysates can be adapted for use with EV subpopulations.

irradiated tumor = settings: mice; cited from earlier work
eGFP-4T1 cells = assay: Mitophagy induction / mitochondrial EV fluorescent labelling (CCCP perturbation); type: cell-based, murine
Description: To further verify that PINK1-associated EVs contained mitochondrial components via a orthogonal methods, we performed a functional perturbation in vitro to induce the cellular release of mitophagy-associated EVs. We treated sub-confluent eGFP-4T1 cells with a mitochondrial depolarization protonophore carbonyl cyanide m-chlorophenyl hydrazone (CCCP) (Villa et al., 2017) and added a permanent fluorescent label for active mitochondrial membranes with MitoTracker Deep Red (MTDR) (Chazotte, 2011). After 48 h, the cells reached 70% confluency and were harvested by differential ultracentrifugation.
Two 4T1-eGFP cell cultures were plated at 10^6 cells/ml. Untreated cells were left to grow for 5 days. Treated cells were stimulated with 10 nM of carbonyl cyanide 3-chlorophenylhydrazone (CCCP) (Sigma) and left to grow for 5 days. The supernatants were collected and EVs fractions were isolated by differential ultracentrifugation. The resulting 100K EVs were probed for anti-ARIH1 (Santa Cruz) by Western blot.
Two 4T1-eGFP-Puro cell cultures were plated at 10^6 cells/ml. Untreated cells were left to grow for 48 h. Treated cells were stimulated with 10 nM and 10 μM of CCCP and left to grow for 48 h. At 48 h, 50 nM of MitoTracker Deep Red (MTDR) (Thermo Fisher) was added to the media and left to sit overnight in the cell incubator. The supernatants were collected and EVs were isolated by differential ultracentrifugation. EVs subpopulations were plated at 30 μl and scanned for peak emission fluorescent intensity fluorescence at […] (absorbance/emission) for GFP and 635/675 nm (absorbance/emission) for MTDR on a Tecan safire2 plate reader.

N.N.[Cl][Pt][Cl] [cisplatin]
RPPA ratio pre to post treatment, EGFR (pY1068) and Bax pathways ([1]; 2K EV population): greatly increased
RPPA ratio pre to post treatment, Akt ([1]; 10K EV population): 11 fold
RPPA pathways altered after treatment ([1]; 100K EV population): few pathways were altered
LC3-I/II (autophagy) and PD-L1 in EV subpopulations, Western blot ([1]; post-treatment EVs compared to pre-treatment): upregulating

CCN(CC)CCCC(C)Nc1ccnc2cc(Cl)ccc12 (centres unmarked) [chloroquine]
response to radiation therapy (irradiated tumor): improves response

N#CC(C#N)=NNc1cccc(Cl)c1 [CCCP, carbonyl cyanide m-chlorophenyl hydrazone]
MitoTracker Deep Red (MTDR) in 100K EVs (eGFP-4T1 cells; MTDR fluorescence normalized to GFP by EV subpopulation): increased release of 100K EVs containing active mitochondrial molecules; also recorded: increasing levels
ARIH1 presence in the 100K EVs (eGFP-4T1 cells; compared to no treatment, Western blot): induced ARIH1 presence
release of CD81+/PINK1+ 100K EVs (eGFP-4T1 cells; increasing CCCP up to 10 μM (cytotoxic level), 48 h, Western blot): release of increased Parkin-independent mitophagy-containing 100K EVs; also recorded: increased release of CD81+/PINK1+ 100K EVs in a dose dependent manner; also recorded: increased export of PINK1 and MitoTracker
